This test concerns AKR/Lw mice, AKR lymphoma ip, median survival T/C. In words: NCI In Vivo Anticancer Drug Screen. Data for tumor model Lymphoma AKR (Transplanted) (intraperitoneal) in AKR/Lw mice. To be noted: endpoint: median survival time, higher = longer survival. How it is done: The antitumor activity of compounds was measured in mice bearing transplantable tumors. Survival or tumor size were measured and the results are expressed as the measurement made in the treated group (T) divided by the measurement made in the vehicle treated control group (C). The tumor model used in this assay is Lymphoma AKR (Transplanted) (intraperitoneal) in AKR/Lw mice

Where [1] appears, read: dose: 2.5 mg/kg/injection, schedule: Q04DX003 (ip), vehicle: saline.
Setting [2] is: dose: 5.0 mg/kg/injection, schedule: Q04DX003 (ip), vehicle: saline.
[3] abbreviates: dose: 12.5 mg/kg/injection, schedule: Q01DX001 (ip), vehicle: saline.
The mark [4] stands for this setting: dose: 100.0 mg/kg/injection, schedule: Q01DX001 (ip), vehicle: Klucel (hydroxypropylcellulose) (HPC).
Setting [5] is: dose: 100.0 mg/kg/injection, schedule: Q04DX003 (ip), vehicle: Klucel (hydroxypropylcellulose) (HPC).
[6] abbreviates: dose: 200.0 mg/kg/injection, schedule: Q04DX003 (ip), vehicle: Klucel (hydroxypropylcellulose) (HPC).

The values that follow come from PubChem BioAssay AID190 (DTP/NCI, 2004).

Values joined by “and” are separate entries in the source; they are usually repeats but may differ in a detail not shown here. Equal entries are not always repeated. Inconclusive results and toxic doses are left out.

On to `O=C(O)CCCc1ccc(N(CCCl)CCCl)cc1`, for which the T/C was 97 % of control (dose: 0.12 mg/kg/injection, schedule: Q01DX009 (ip), vehicle: Klucel (hydroxypropylcellulose) (HPC)); 94 % of control and 96 % of control (dose: 0.25 mg/kg/injection, schedule: Q01DX009 (ip), vehicle: Klucel (hydroxypropylcellulose) (HPC)); 100 % of control (dose: 0.5 mg/kg/injection, schedule: Q01DX009 (ip), vehicle: Klucel (hydroxypropylcellulose) (HPC)); 96 % of control and 102 % of control (dose: 1.0 mg/kg/injection, schedule: Q01DX009 (ip), vehicle: Klucel (hydroxypropylcellulose) (HPC)); 100 % of control (dose: 1.2 mg/kg/injection, schedule: Q01DX009 (ip), vehicle: Klucel (hydroxypropylcellulose) (HPC)); 94 % of control (dose: 1.2 mg/kg/injection, schedule: Q04DX003 (ip), vehicle: Klucel (hydroxypropylcellulose) (HPC)). Further, the T/C reads like this: (dose: 1.25 mg/kg/injection, schedule: Q04DX003 (ip), vehicle: saline) 103 % of control; (dose: 2.0 mg/kg/injection, schedule: Q01DX009 (ip), vehicle: Klucel (hydroxypropylcellulose) (HPC)) 100 % of control; (dose: 2.5 mg/kg/injection, schedule: Q01DX009 (ip), vehicle: Klucel (hydroxypropylcellulose) (HPC)) 93 % of control and 107 % of control; (dose: 2.5 mg/kg/injection, schedule: Q04DX003 (ip), vehicle: Klucel (hydroxypropylcellulose) (HPC)) 100 % of control; under setting [1], 86 % of control and 118 % of control; (dose: 3.75 mg/kg/injection, schedule: Q01DX009 (ip), vehicle: saline) 119 % of control. Also, the T/C reads like this: (dose: 4.0 mg/kg/injection, schedule: Q01DX009 (ip), vehicle: Klucel (hydroxypropylcellulose) (HPC)) 118 % of control; (dose: 5.0 mg/kg/injection, schedule: Q01DX009 (ip), vehicle: Klucel (hydroxypropylcellulose) (HPC)) 86 % of control and 110 % of control; (dose: 5.0 mg/kg/injection, schedule: Q04DX003 (ip), vehicle: Klucel (hydroxypropylcellulose) (HPC)) 100 % of control and 105 % of control and 117 % of control; under setting [2], 93 % of control and 97 % of control; (dose: 6.2 mg/kg/injection, schedule: Q01DX001 (ip), vehicle: Klucel (hydroxypropylcellulose) (HPC)) 95 % of control and 120 % of control; (dose: 6.25 mg/kg/injection, schedule: Q01DX009 (ip), vehicle: saline) 97 % of control. In addition, the T/C (dose: 7.5 mg/kg/injection, schedule: Q01DX009 (ip), vehicle: Klucel (hydroxypropylcellulose) (HPC)) is 106 % of control; the T/C (dose: 7.5 mg/kg/injection, schedule: Q01DX009 (ip), vehicle: saline) was 122 % of control; the T/C (dose: 12.5 mg/kg/injection, schedule: Q01DX001 (ip), vehicle: Klucel (hydroxypropylcellulose) (HPC)) was 109 % of control and 118 % of control; the T/C under setting [3] is 109 % of control and 111 % of control; the T/C (dose: 15.0 mg/kg/injection, schedule: Q01DX009 (ip), vehicle: saline) was 122 % of control; the T/C (dose: 20.0 mg/kg/injection, schedule: Q04DX003 (ip), vehicle: saline) was 94 % of control. In addition, the T/C by setting is: (dose: 40.0 mg/kg/injection, schedule: Q04DX003 (ip), vehicle: Klucel (hydroxypropylcellulose) (HPC)) 100 % of control; under setting [4], 104 % of control.

As for `Nc1ccccc1SC1CC(=O)N(c2ccc(I)cc2)C1=O` (stereo not given), the T/C runs as follows: under setting [4], 93 % of control; under setting [5], 90 % of control; under setting [6], 86 % of control.

Turning to `c1cc2cc3c(cc2c2c1CC1c4cc5c(cc4CCN1C2)OCO5)OCO3` (stereo not given), the T/C was 102 % of control under setting [4]; 103 % of control under setting [5]; 97 % of control (dose: 200.0 mg/kg/injection, schedule: Q01DX001 (ip), vehicle: Klucel (hydroxypropylcellulose) (HPC)); 96 % of control under setting [6]; 92 % of control (dose: 400.0 mg/kg/injection, schedule: Q04DX003 (ip), vehicle: Klucel (hydroxypropylcellulose) (HPC)).

As for `COc1cc([C@@H]2c3cc4c(cc3[C@H](O)[C@H]3COC(=O)[C@@H]23)OCO4)cc(OC)c1OC`, the T/C was 110 % of control (dose: 6.0 mg/kg/injection, schedule: Q01DX009 (ip), vehicle: Klucel (hydroxypropylcellulose) (HPC)) and 120 % of control (dose: 12.0 mg/kg/injection, schedule: Q01DX009 (ip), vehicle: Klucel (hydroxypropylcellulose) (HPC)).

`Nc1ncn(C2OC(CO)C(O)C2O)c(=O)n1` (stereo not given): the T/C was 116 % of control (dose: 0.06 mg/kg/injection, schedule: Q04DX008 (ip), vehicle: saline); 109 % of control (dose: 0.12 mg/kg/injection, schedule: Q04DX004 (ip), vehicle: saline); 118 % of control (dose: 0.25 mg/kg/injection, schedule: Q04DX004 (ip), vehicle: saline); 88 % of control (dose: 0.38 mg/kg/injection, schedule: Q04DX003 (ip), vehicle: saline); 180 % of control (dose: 0.5 mg/kg/injection, schedule: Q04DX008 (ip), vehicle: saline); 240 % of control (dose: 0.75 mg/kg/injection, schedule: Q01DX009 (ip), vehicle: water). Moreover, the T/C was 152 % of control (dose: 1.0 mg/kg/injection, schedule: Q04DX004 (ip), vehicle: saline); 155 % of control (dose: 1.0 mg/kg/injection, schedule: Q04DX008 (ip), vehicle: saline); 92 % of control (dose: 1.5 mg/kg/injection, schedule: Q01DX009 (ip), vehicle: saline); 153 % of control (dose: 1.5 mg/kg/injection, schedule: Q01DX009 (ip), vehicle: water); 185 % of control (dose: 2.0 mg/kg/injection, schedule: Q04DX004 (ip), vehicle: saline); 159 % of control (dose: 2.0 mg/kg/injection, schedule: Q04DX008 (ip), vehicle: saline). Besides, the T/C was 95 % of control and 114 % of control (dose: 2.5 mg/kg/injection, schedule: Q01DX001 (ip), vehicle: saline); 122 % of control under setting [1]; 265 % of control (dose: 3.0 mg/kg/injection, schedule: Q01DX009 (ip), vehicle: water); 150 % of control and 252 % of control (dose: 3.0 mg/kg/injection, schedule: Q04DX004 (ip), vehicle: saline); 150 % of control (dose: 3.0 mg/kg/injection, schedule: Q04DX008 (ip), vehicle: saline); 163 % of control and 223 % of control (dose: 4.4 mg/kg/injection, schedule: Q04DX004 (ip), vehicle: saline). The T/C by setting is: (dose: 4.4 mg/kg/injection, schedule: Q04DX008 (ip), vehicle: saline) 166 % of control and 180 % of control; under setting [2], 124 % of control; (dose: 6.0 mg/kg/injection, schedule: Q01DX001 (ip), vehicle: saline) 92 % of control and 121 % of control; (dose: 6.0 mg/kg/injection, schedule: Q01DX009 (ip), vehicle: water) 96 % of control; (dose: 6.25 mg/kg/injection, schedule: Q01DX001 (ip), vehicle: saline) 90 % of control; (dose: 10.0 mg/kg/injection, schedule: Q04DX003 (ip), vehicle: saline) 124 % of control. For the same compound, the T/C (dose: 10.0 mg/kg/injection, schedule: Q04DX004 (ip), vehicle: saline) was 163 % of control; the T/C (dose: 10.0 mg/kg/injection, schedule: Q04DX008 (ip), vehicle: saline) was 152 % of control and 169 % of control; the T/C (dose: 12.0 mg/kg/injection, schedule: Q01DX001 (ip), vehicle: saline with Tween-80) was 162 % of control; the T/C (dose: 12.0 mg/kg/injection, schedule: Q01DX001 (ip), vehicle: saline) was 92 % of control and 121 % of control; the T/C (dose: 12.0 mg/kg/injection, schedule: Q04DX003 (ip), vehicle: water) is 166 % of control; the T/C under setting [3] was 105 % of control and 112 % of control. Also, the T/C (dose: 24.0 mg/kg/injection, schedule: Q01DX001 (ip), vehicle: saline with Tween-80) is 178 % of control; the T/C (dose: 30.0 mg/kg/injection, schedule: Q01DX001 (ip), vehicle: saline) was 164 % of control; the T/C (dose: 40.0 mg/kg/injection, schedule: Q01DX001 (ip), vehicle: saline) is 103 % of control; the T/C (dose: 48.0 mg/kg/injection, schedule: Q01DX001 (ip), vehicle: saline with Tween-80) is 206 % of control; the T/C (dose: 80.0 mg/kg/injection, schedule: Q01DX001 (ip), vehicle: saline) was 119 % of control; the T/C (dose: 96.0 mg/kg/injection, schedule: Q01DX001 (ip), vehicle: saline with Tween-80) was 375 % of control. Besides, the T/C is, setting by setting: (dose: 15.0 micrograms/kg/injection, schedule: Q01DX009 (ip), vehicle: saline) 113 % of control; (dose: 30.0 micrograms/kg/injection, schedule: Q01DX009 (ip), vehicle: saline) 165 % of control; (dose: 60.0 micrograms/kg/injection, schedule: Q01DX009 (ip), vehicle: saline) 150 % of control.
